Measurements reported in patent US7205387B2, “Recombinant polypeptide useful for neurotrophin receptor mediated gene delivery and as neurotrophin agonist” (Agency for Science, Technology and Research, priority 2003, dated 2007).
Bridge positions count the residues as written; N and C are the ends. Ends that are not written are not given here.

Experiments:
Erk1 and Erk2 = test: Phospho-Erk1/Erk2 (p44/p42 MAPK) immunoblot in PC12 cells; assay type: cell-based, rat; conditions: for effect of TrkA inhibitor pre-treatment on NL4- and NL4-10K-induced phosphorylation of Erk1 and Erk2: 100 nM K-252a or 10 μM AG879, 10 min pre-incubation
Experimental: (§1) Immunoblotting experiments were conducted to test whether the chimeric polypeptides could, like NGF, induce autophosphorylation of TrkA and activation of its signal transduction pathways. PC12 cells were seeded in 6-well plates at a density of 2×10^6 cells/well and cultured in RPMI 1640 containing 0.5% FBS and 0.25% horse serum for 2 days. The low serum concentrations were necessary to reduce the basal levels of phosphorylation. The medium was refreshed two hours before beginning treatment. The cells were incubated with the polypeptides or NGF in serum-free medium for 15–20 min. The cells were then washed in PBS, lysed, and sonicated. The cell lysates were resolved by SDS-PAGE and transferred to a nitrocellulose membrane for immunoblotting. The primary antibodies used include Phospho-TrkA (Tyr490) antibody, Phospho-p44/p42 MAPK (Thr202/Tyr204) monoclonal antibody, and Phospho-Akt (Ser473) monoclonal antibody, all obtained from Cell Signaling Technology (Beverly, Mass., USA). Colorimetric detection was performed by standard techniques after using horse-radish peroxidase-conjugated secondary antibodies. In some experiments, TrkA tyrosine kinase inhibitors K-252a or AG879 (both from Calbiochem, La Jolla, Calif., USA) were used. In these cases, PC12 cells were incubated with 100 nM K-252a or 10 μM AG879 before addition of polypeptides or NGF.

[1] = system: PC12 (TrkA and p75^NTR positive) cells; test: Gene delivery in vitro (pCAGluc luciferase reporter), PC12 cells; assay type: cell-based, rat; conditions: for dose-response of transfection efficiency with increasing amount of peptide: 1 μg pCAGluc/well, 100 μM chloroquine
Experimental: A PC12 (rat pheochromocytoma) cell line was obtained from ATCC (American Type Culture Collection, Manassas, Va., USA) and cultured in RPMI-1640 medium supplemented with 10% fetal bovine serum (FBS) and 5% horse serum. PC12 cells are known to express TrkA and p75^NTR receptors. A COS7 (African green monkey kidney fibroblast) cell line was obtained from ATCC and cultured in Dulbecco's modified Eagle's medium (DMEM) supplemented with 10% fetal bovine serum, 50 U/ml penicillin, and 50 μg/ml streptomycin. The cells were maintained in a 37° C., 5% CO2, humidified incubator.
To determine the transfection efficiencies of our nucleic acid delivery systems, we employ a reporter plasmid, pCAGluc (a gift from Yoshiharu Matsuura, National Institute of Infectious Diseases, Tokyo, Japan), encoding firefly luciferase under the control of the composite promoter, CAG. CAG comprises the chicken β-actin promoter and the cytomegalovirus immediate early enhancer.
TrkA-targeting gene delivery complexes were tested for transfection efficiency in vitro in PC12 (TrkA and p75^NTR positive) cells and COS7 (neurotrophin receptor negative) cells. The cells were grown to 50–70% confluency in microplate wells (24-, 48-, or 96-well plates). The gene delivery complexes were prepared according to specifications presented for each example. Transfection was accomplished by replacing the serum-enriched medium with half the usual volume of reduced-serum medium, Opti-MEM (Invitrogen), containing the gene delivery complexes. Where specifically mentioned, 100 μM of chloroquine was also added to help the complexes escape from endosomes. After four hours of incubation, the cells were restored to the normal medium volume and serum concentration, either by topping up with medium containing twice the usual serum concentration (RPMI-1640 with 20% FBS and 10% horse serum for PC12) or by completely replacing the medium.
One to two days after transfection, the cell culture medium was removed and the cells were rinsed in phosphate-buffered saline (PBS). Enough Reporter Lysis Buffer (Promega, Wisconsin, Md., USA) to cover the bottom surface was added to each well (50 μl/well for 48-well plates). After one freeze-thaw cycle, the lysates were tested for luciferase activity using the Luciferase Assay System (Promega) and a single-tube luminometer (Berthold Lumat L B 9507, Bad Wildbad, Germany). The total protein concentration of each lysate was determined using the DC Protein assay (Bio-Rad, Hercules, Calif., USA). The results were expressed in relative light units (RLU) per milligram of total protein.

plasmid DNA [2] = test: DNA retardation assay (agarose gel electrophoresis); assay type: binding
Experimental: This assay qualitatively assesses the ability of a polypeptide or polycation to bind to DNA and thus to retard its migration (by decreasing its charge/mass ratio) through an agarose gel under electrophoresis. For a range of N/P ratios, polypeptide was added to 0.1 μg of plasmid DNA made up to 20 μl with either HEPES-buffered saline (HBS, 150 mM NaCl, 29 mM HEPES, pH 7.3) or 5% glucose. The mixtures were vortexed and incubated at room temperature for 30 minutes before being subjected to electrophoresis in a 0.8–1.0% Tris-borate-EDTA agarose gel stained with ethidium bromide for visualization under ultraviolet light.

TrkA = target: T1, TrkA (Rattus norvegicus, UniProt P35739); test: Phospho-TrkA immunoblot in PC12 cells; assay type: cell-based; conditions: 5 μM peptide, 20 min
T1 construct: endogenous in cells; host or cells: PC12 (rat pheochromocytoma, ATCC)
T1 sequence (P35739 33-799): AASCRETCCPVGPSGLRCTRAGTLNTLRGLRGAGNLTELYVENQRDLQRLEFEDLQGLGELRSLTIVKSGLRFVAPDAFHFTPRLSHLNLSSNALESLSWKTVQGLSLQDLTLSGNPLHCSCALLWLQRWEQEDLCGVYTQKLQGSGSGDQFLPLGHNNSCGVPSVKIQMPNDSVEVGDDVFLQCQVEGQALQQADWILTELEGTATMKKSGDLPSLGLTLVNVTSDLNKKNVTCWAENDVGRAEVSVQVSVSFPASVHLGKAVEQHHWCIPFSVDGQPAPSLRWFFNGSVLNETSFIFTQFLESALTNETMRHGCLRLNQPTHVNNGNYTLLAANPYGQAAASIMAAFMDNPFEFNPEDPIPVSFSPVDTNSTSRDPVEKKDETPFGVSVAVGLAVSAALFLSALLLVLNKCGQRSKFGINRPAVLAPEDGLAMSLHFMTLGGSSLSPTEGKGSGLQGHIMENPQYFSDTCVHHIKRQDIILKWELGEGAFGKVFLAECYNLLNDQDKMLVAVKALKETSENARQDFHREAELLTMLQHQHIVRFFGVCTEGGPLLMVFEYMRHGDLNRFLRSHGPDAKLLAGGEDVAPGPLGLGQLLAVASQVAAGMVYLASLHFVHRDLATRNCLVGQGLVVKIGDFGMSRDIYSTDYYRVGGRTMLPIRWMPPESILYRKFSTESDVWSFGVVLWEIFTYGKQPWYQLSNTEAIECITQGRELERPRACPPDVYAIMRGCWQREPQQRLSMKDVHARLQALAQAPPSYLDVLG
Experimental: as §1

PC12 cells = test: PC12 cell survival assay (MTT, serum-free medium); assay type: cell-based, rat; conditions: differentiated PC12, serum and NGF deprived 4 days; 0.125 to 2.5 μM; NGF 10 ng/ml control
Experimental: Undifferentiated or differentiated (by 6-day treatment with 10 ng/ml NGF) PC12 cells seeded onto collagen-coated 96-well plates were exposed to serum-free RPMI-1640 medium containing either NGF or various concentrations of chimeric polypeptides. After 3–4 days of incubation, cell viability was measured by the standard MTT assay. Cell survival was expressed as a percentage of the viability of the NGF-treated control.

Akt = test: Phospho-Akt immunoblot in PC12 cells; assay type: cell-based, rat; conditions: 5 μM peptide, 20 min
Experimental: as §1

primary cortical neurons = test: Gene delivery to primary cultures of cortical neurons; assay type: cell-based, rat
Experimental: Primary cultures of neurons were established from the cortices of embryonic Wistar rats at gestational day 20. Cortices freed of meninges were dissected and individual cells were dispersed mechanically by trituration of minced tissue in 3 ml DMEM medium supplemented with 2% FBS. The suspension was allowed to settle in a centrifuge tube. The cells in the supernatant were collected by centrifugation and resuspended gently in DMEM with 10% FBS. Viability of the cells was assessed prior to plating using trypan blue. Cells were plated onto microplates pre-coated with poly-L-lysine/laminin at a density of 7.5×10^5 viable cells/cm^2. After a two-hour incubation period to allow neurons to attach, the medium and unattached cells were removed and replaced by serum-free DMEM/F12 medium with 1% N2 supplement (Invitrogen, Carlsbad, Calif., USA). The cell were then incubated at 37° C. in 5% CO2 in a humidified incubator. After 2–5 days of culture, the neuron cells were used for transfection experiments. Gene delivery complexes were also tested on primary cultures of cortical neurons and glial cells in a similar fashion. […] Four hours later, an equal volume of DMEM-F12/N2 was added. One to two days after transfection, the cell culture medium was removed and the cells were rinsed in phosphate-buffered saline (PBS). Enough Reporter Lysis Buffer (Promega, Wisconsin, Md., USA) to cover the bottom surface was added to each well (50 μl/well for 48-well plates). After one freeze-thaw cycle, the lysates were tested for luciferase activity using the Luciferase Assay System (Promega) and a single-tube luminometer (Berthold Lumat L B 9507, Bad Wildbad, Germany). The total protein concentration of each lysate was determined using the DC Protein assay (Bio-Rad, Hercules, Calif., USA). The results were expressed in relative light units (RLU) per milligram of total protein.

primary glial cells = test: Gene delivery to primary cultures of glial cells; assay type: cell-based, rat
Experimental: Primary cultures of glial cells were established from the cortices of 20-day old embryonic Wistar rats. Individual cells were collected as described above. The cells were plated at a density of 4×10^5 viable cells/cm^2 on poly-L-lysine/laminin coated dishes and grown to confluence for 7 days in DMEM/F12 medium supplemented with 10% FCS. The day before transfection, the cells were detached and plated into coated microplates at a density of 2.5×10^4 cells per well. Gene delivery complexes were also tested on primary cultures of cortical neurons and glial cells in a similar fashion. […] Four hours later, an equal volume of DMEM-F12/N2 was added. One to two days after transfection, the cell culture medium was removed and the cells were rinsed in phosphate-buffered saline (PBS). Enough Reporter Lysis Buffer (Promega, Wisconsin, Md., USA) to cover the bottom surface was added to each well (50 μl/well for 48-well plates). After one freeze-thaw cycle, the lysates were tested for luciferase activity using the Luciferase Assay System (Promega) and a single-tube luminometer (Berthold Lumat L B 9507, Bad Wildbad, Germany). The total protein concentration of each lysate was determined using the DC Protein assay (Bio-Rad, Hercules, Calif., USA). The results were expressed in relative light units (RLU) per milligram of total protein.

plasmid DNA [3] = test: Atomic force microscopy of polypeptide-DNA complexes; assay type: physicochemical; conditions: N/P ratio of 10
Experimental: DNA samples, polypeptide-DNA complexes, and polypeptide-polycation-DNA complexes were prepared with a DNA concentration of 0.02 mg/ml. The samples were diluted ten-fold in HPLC-grade water, and 20 μl of each sample was deposited onto mica discs. After one minute, the mica discs were washed with HPLC-grade water and dried in a stream of filtered air. Images were acquired on a Nanoscope IIIa atomic force microscope (Digital Instruments, Santa Barbara, Calif., USA) operating in tapping mode in air, using Nanoprobe Silicon tips (Digital Instruments).

[4] = 0.25 μg/well pCAGluc, PEI600-based complexes
[5] = pCAGluc/SPKR4BL1-2 without PEI600, 0.25 μg/well

In the case of `CC(C)(C)c1cc(/C=C(\C#N)C(N)=S)cc(C(C)(C)C)c1O` [AG879, reference compound], the “effect of TrkA inhibitor pre-treatment on NL4- and NL4-10K-induced phosphorylation of Erk1 and Erk2” value (Erk1 and Erk2) is reported as “greatly reduced”.

For `COC(=O)[C@@]1(O)C[C@H]2O[C@]1(C)n1c3ccccc3c3c4c(c5c6ccccc6n2c5c31)C(=O)NC4` [K-252a, reference compound], the “effect of K-252a on Erk phosphorylation induced by 8 μM SPKR4NL1-2” value (Erk1 and Erk2; 0, 10, 20, 50 and 100 nM K-252a, 10 min pre-incubation) was “reduced and eventually eliminated” and the “effect of TrkA inhibitor pre-treatment on NL4- and NL4-10K-induced phosphorylation of Erk1 and Erk2” value (Erk1 and Erk2) was “greatly reduced”.

“KKKKKKKKKK (artificial sequence lysine 10) [10K, ten consecutive lysine residues, reference compound]” was tested, and the “dose-response of transfection efficiency with increasing amount of peptide” value [1] was “Neither NL4 (targeting domain only) nor 10K (DNA-binding domain only) nor a mixture of the two exhibited this dose-responsive trend” and the “reduction of efficiency of NL4-10K/pCAGluc gene delivery by excess free competitor” value ([1]; competitor present during transfection, complexes at N/P ratio of 5, 100 μM chloroquine) was “did not have a significant effect”.

“NGF: nerve growth factor, neurotrophin; competitor and positive control” was tested, and the “effect of added NGF on transfection by (SPKR)4/DNA/PEI600” value ([1]; NGF 200 ng/ml) was “no significant effect” and the “effect of added NGF on transfection by SPKR4NL1-2/DNA/PEI600” value ([1]; NGF 200 ng/ml during transfection) was “greatly reduces the transfection efficiency”.

For “NL4: loop 4 of NGF and the flanking β-sheet sequences, amino acids 80–108; targeting domain only (CTTTHTFVKALTMDGKQAAWRFIRIDTAC; disulfide 1-29)”, the “DNA binding / retardation of DNA migration (in words)” value (plasmid DNA [2]) was “does not retard DNA migration”, the “activation (phosphorylation) of TrkA” value (TrkA) was “induced activation” and the “activation (phosphorylation) of Erk 1 and Erk 2” value (Erk1 and Erk2; 5 μM peptide, 20 min) was “induced activation”. The “cell survival rate as % of optimal NGF-promoted survival” value (PC12 cells) was 68–109%, the “activation (phosphorylation) of Akt” value (Akt) was “induced activation” and the “dose-response of transfection efficiency with increasing amount of peptide” value [1] was “Neither NL4 (targeting domain only) nor 10K (DNA-binding domain only) nor a mixture of the two exhibited this dose-responsive trend”.

In the case of “SPKRSPKRSPKRSPKR (artificial sequence SPKR4) [(SPKR)4, reference compound]”, the “transgene expression (in words)” value (primary cortical neurons; [4]) is reported as “enhances transgene expression” and the “transgene expression (in words)” value (primary glial cells; [4]) is reported as “enhances transgene expression”.

B1: SPKR4BL1-2: chimeric protein analogous to SPKR4NL1-2 with loops 1 and 2 of BDNF (aa 22–74) to bind TrkB (protein)
chain: MGHHHHHHHHHHSSGHIEGRHMSPKRSPKRSPKRSPKRGGTYLSEDELKAAEAAFKRHNPTGSCSISEWVTAADKKTAVDMSGGTVTVLEKVPVSKGQLKQYFYETKCNPMGYTKEG
modifications: SPKR4BL1-2
B1 was tested, and the “increase of transgene expression with increasing SPKR4BL1-2” value (primary cortical neurons; PEI600 fixed at N/P ratio of 10, 0.25 μg/well pCAGluc, highest ratio used) was “up to 500 fold”, the “N/P ratio at which plasmid DNA is completely retarded (complex immobile)” value (plasmid DNA [2]; 0.1 μg plasmid DNA, agarose gel) was 2 N/P ratio and the “peptide/DNA amount equivalent to the N/P ratio of complete retardation” value (plasmid DNA [2]; N/P ratio of 2) was 0.8 nmol/ug DNA. The “diameter of condensed plasmid DNA particles” value (plasmid DNA [3]) was “under 200 nm”, the “transgene expression relative to PEI600/DNA” value (primary glial cells; [5]) was 50 times and the “transgene expression relative to naked DNA” value (primary glial cells; [5]) was 180 times.
